Where two headings read alike, the source gives them in different places. Starred links: 1 amine or outer side, 2 acyl side, 3 side chain; linkers in the order of their positions; H or OH if unused. Non-standard residues stand in square brackets, D forms with d. Residues, ends and D or L forms follow the SMILES beside them. Groups on a side chain read outwards from the residue. *: point of attachment. Daunorubicin = COc1cccc2c1C(=O)c1c(O)c3c(c(O)c1C2=O)C[C@@](O)(C(C)=O)C[C@@H]3O[C@H]1C[C@H](N*)[C@H](O)[C@H](C)O1; Dabcyl = CN(C)c1ccc(N=Nc2ccc(C(=O)*)cc2)cc1; X1 = O=C(c1ccc2cc(N[*:1])ccc2c1)[*:2]; Suc = O=C(CCC(=O)[*:2])[*:1]; 4Amb = NCc1ccc(C(=O)O)cc1; 4Abz = Nc1ccc(C(=O)O)cc1
Columns and labels:
MCF-7 [1] = test: In vitro cytostatic activity, MTT assay; assay type: cell-based, human; details: 3 h incubation with compound (0.4–100 µM), then 3 days culture in serum containing medium, three independent experiments with 4 parallel measurements
Protocol: (§1) Cells were grown to confluency and were plated into 96-well plates with initial cell number of 5 × 10^3 per well. The cells were incubated at 37 °C for 24 h. Then, cells were treated with the compounds at 0.4–100 µM concentration range for 3 h in 200 µL as the final volume. Control cells were treated with serum free medium at 37 °C for 3 h. After the incubation, the cells were washed with serum free medium twice. To analyze the in vitro cytostatic effect, cells were further cultured for 72 h in serum containing medium. Then, the MTT assay was performed to measure the IC50 values. […] The cells were incubated for 4 h. Then, the plates were centrifuged at 900× g for 5 min, and the supernatant was discarded. To dissolve the formed purple crystals, 100 µL of DMSO was added, and the absorbance was determined at λ = 540 nm and 620 nm using ELISA plate reader (iEMS Reader, Labsystems, Finland). To measure the percentage of cytostasis, the following equation was used for calculation: Cytostatic effect (%) = [1 − (ODtreated/ODcontrol)] × 100; where ODtreated and ODcontrol correspond to the optical densities of the treated and untreated cells, respectively. In each case, three independent experiments were carried out with 4 parallel measurements. […] The curves were defined using MicrocalTM Origin (version 9.2) software: cytostasis was plotted as a function of concentration, fitted to a sigmoidal curve, and based on this curve, the IC50 value was determined.

MDA-MB-231 [2] = test: In vitro cytostatic activity, MTT assay; assay type: cell-based, human; details: 3 h incubation with compound (0.4–100 µM), then 3 days culture in serum containing medium, three independent experiments with 4 parallel measurements
Protocol: as §1

MCF-7 [3] = details: 3 h incubation, 3 days culture, MTT assay; cited from earlier work
From the text: Table 3 Cytostatic activity of peptide/drug conjugates on MCF-7 and MDA-MB-231. | column: IC50 ±SD (µM) ^a / MCF-7

MDA-MB-231 [4] = details: 3 h incubation, 3 days culture, MTT assay; cited from earlier work
From the text: Table 3 Cytostatic activity of peptide/drug conjugates on MCF-7 and MDA-MB-231. | column: IC50 ±SD (µM) ^a / MDA-MB-231

MDA-MB-231 cells [5] = test: Effect of endocytosis inhibitors on cellular uptake (flow cytometry); assay type: cell-based, human; details: then Cf-labelled peptide conjugate 5 µM, 90 min, 37 °C; for Effect of EIPA on uptake: EIPA 50 µM pretreatment 30 min; for Effect of CPZ on uptake: chlorpromazine (CPZ) 30 µM pretreatment 30 min; for Effect of COL on uptake: colchicine (COL) 20 µM pretreatment 30 min
From the text: Several endocytic routes can be used by CPPs for entry, which then determine their intracellular fate. […] The following inhibitors were applied: 5-(N-ethyl-N-isopropyl)amiloride (EIPA) as […] [39], chlorpromazine (CPZ) to inhibit clathrin-mediated endocytosis, methyl-beta-cyclodextrin (CyD) to deplete cholesterol from the lipid rafts, and thus to inhibit caveolae-mediated endocytosis. Finally, colchicine (COL) was used to ascertain if microtubules are involved in the uptake of the peptides as this agent inhibits microtubule formation.
The effect of inhibitors was studied in the same manner but with pretreatment by an inhibitor for 30 min, and subsequently treated with a peptide conjugate at 5 µM. The cells were then incubated for 90 min at 37 °C. Macropinocytosis was inhibited using 5-(N-Ethyl-N-isopropyl)amiloride (EIPA), clathrin-mediated endocytosis with chlorpromazine (CPZ), colchicine (Col) to assess the role of microtubules, and methyl-β-cyclodextrin (CyD) for the inhibition of caveolae/lipid-raft-mediated endocytosis.
Figure 8 Effect of endocytosis inhibitors on the cellular uptake of peptide conjugates. MDA-MB-231 cells were pretreated with inhibitors EIPA (50 µM), CPZ (30 µM), CyD (5 mM) and COL (20 µM) for 30 min, the cells were then treated with the peptide conjugates (5 µM) for 90 min. Significant difference from control was measured using student’s t test (* p <0.05, ** p < 0.01and **** p< 0.0001).

MDA-MB-231 cells [6] = test: Effect of ATP depletion (NaN3 and DOG) on cellular uptake (flow cytometry); assay type: cell-based, human; details: NaN3 10 mM and DOG 5 mM pretreatment 30 min, then peptide conjugate 5 µM, 90 min, 37 °C
Protocol: In order to inhibit all pathways of endocytosis, MDA-MB-231 cells were pretreated with sodium azide (NaN3) (10 mM) and 2-Deoxyglucose (DOG) (5 mM) for 30 min and the peptide was added to the wells. The cells were then incubated for 90 min at 37 °C.
Figure 9 Effect of endocytosis inhibitors on the cellular uptake of peptide conjugates. MDA-MB-231 cells were pretreated with NaN3 (10 mM) and DOG (5 mM) for 30 min, the cells were then treated with the peptide conjugates (5 µM) for 90 min. Significant difference from control was measured using Student’s t test (* p < 0.05 and ** p < 0.01).

MDA-MB-231 cells [7] = test: Cellular uptake of fluorescently labelled peptides by flow cytometry; assay type: cell-based, human; details: 90 min, flow cytometry after trypsin treatment
Protocol: Cellular uptake of peptides was measured using flow cytometry on MCF-7 and MDA-MB-231 cells. Cells were treated with the fluorescently labelled peptides at 1, 5 and 10 µM concentrations for 90 min at 37 °C.
To study the cellular uptake of fluorophore-labelled peptides, 10^5 cells per well were plated on 24-well plates. Cells were incubated for 24 h at 37 °C, followed by treatment with the peptides at different concentrations, in serum-free medium for different time intervals. For negative control, cells were treated with serum-free medium. After the incubation, the peptide solutions were removed and 100 µL trypsin (0.25%) was added for 5–10 min to remove membrane bound peptides and detach the adherent cells from the plates. […] The fluorescence intensity of cells was quantified by flow cytometer (BD LSR II, BD Bioscience, San Jose, CA, USA). Data were analyzed with FACSDiVa 5.0 software.
Cells were treated with 1, 5 and 10 µM peptide solution for 90 min. The fluorescence intensity of the cells was determined by flow cytometry after trypsin treatment. […]
Cells were treated with 1, 5 and 10 µM peptide solutions for 90 min. The fluorescence intensity of the cells was determined by flow cytometry after trypsin treatment.

Molecule	IC50 (MCF-7 [1]) [µM]	IC50 (MDA-MB-231 [2]) [µM]	IC50 (MCF-7 [3]) [µM]	IC50 (MDA-MB-231 [4]) [µM]	further results
COc1cccc2c1C(=O)c1c(O)c3c(c(O)c1C2=O)C[C@@](O)(C(C)=O)C[C@@H]3O[C@H]1C[C@H](NC(=O)CCC(=O)NCCCC[C@H](NC(=O)[C@H](CCCNC(=N)N)NC(=O)[C@H](CCCNC(=N)N)NC(=O)[C@H](CCCNC(=N)N)NC(=O)[C@H](CCCNC(=N)N)NC(=O)c2ccc(CNC(=O)c3ccc(N=Nc4ccc(N(C)C)cc4)cc3)cc2)C(N)=O)[C@H](O)[C@H](C)O1 [Dabcyl-AMBA-Arg-Arg-Arg-Arg-Lys(DauSuc)] ({Dabcyl-4Amb}-RRRRK([Suc-Daunorubicin])-NH2)	10.3 ± 5	10.1 ± 6	–	–	–
COc1cccc2c1C(=O)c1c(O)c3c(c(O)c1C2=O)C[C@@](O)(C(C)=O)C[C@@H]3O[C@H]1C[C@H](NC(=O)CCC(=O)NCCCC[C@H](NC(=O)[C@H](CCCNC(=N)N)NC(=O)[C@H](CCCNC(=N)N)NC(=O)[C@H](CCCNC(=N)N)NC(=O)[C@H](CCCNC(=N)N)NC(=O)c2ccc3cc(NC(=O)c4ccc(N=Nc5ccc(N(C)C)cc5)cc4)ccc3c2)C(N)=O)[C@H](O)[C@H](C)O1 [Dabcyl-NAPH- Arg-Arg-Arg-Arg-Lys(DauSuc)] (Dabcyl-[X1]RRRRK([Suc-Daunorubicin])-NH2)	15 ± 4.2	16.6 ± 0.5	–	–	–
COc1cccc2c1C(=O)c1c(O)c3c(c(O)c1C2=O)C[C@@](O)(C(C)=O)C[C@@H]3O[C@H]1C[C@H](NC(=O)CCC(=O)NCCCC[C@H](NC(=O)[C@H](CCCNC(=N)N)NC(=O)[C@H](CCCNC(=N)N)NC(=O)[C@H](CCCNC(=N)N)NC(=O)[C@H](CCCNC(=N)N)NC(=O)c2ccc(NC(=O)c3ccc(N=Nc4ccc(N(C)C)cc4)cc3)cc2)C(N)=O)[C@H](O)[C@H](C)O1 [Dabcyl-PABA- Arg-Arg-Arg-Arg-Lys(DauSuc)] ({Dabcyl-4Abz}-RRRRK([Suc-Daunorubicin])-NH2)	17.7 ± 1.2	14.3 ± 1.1	–	–	–
CN(Cc1cnc2nc(N)nc(N)c2n1)c1ccc(C(=O)N[C@@H](CCC(=O)O)C(=O)O)cc1 [MTX, methotrexate]	–	–	0.8 ± 0.3	> 100	–
Dabcyl-AMBA-RRRRK	–	–	–	–	Effect of EIPA on uptake (MDA-MB-231 cells [5]): decreased the uptake; Effect of CPZ on uptake (MDA-MB-231 cells [5]): did not cause any inhibition; Effect of COL on uptake (MDA-MB-231 cells [5]): did not cause any inhibition; Uptake after pretreatment with NaN3 and DOG (MDA-MB-231 cells [6]): significantly lower
Dabcyl-PABA-RRRRK	–	–	–	–	Effect of EIPA on uptake (MDA-MB-231 cells [5]): did not alter the internalization; Effect of CPZ on uptake (MDA-MB-231 cells [5]): did not cause any inhibition; Effect of COL on uptake (MDA-MB-231 cells [5]): did not cause any inhibition; Uptake relative to Arg8 (MDA-MB-231 cells [7]; CY5-labelled peptide, at all concentrations (1, 5 and 10 µM)): 3 to 4.5 folds; Relative uptake intensity (MDA-MB-231 cells [7]; Cf-labelled peptide, 10 µM, 37 °C, fluorescence intensity relative to Dabcyl-RRWRRK(Cf) at 10 µM (100%)): 340%; Uptake after pretreatment with NaN3 and DOG (MDA-MB-231 cells [6]): significantly lower
Dabcyl-Trp-Arg-Arg-Arg-Arg-Lys(DauSuc)	–	–	26.4 ± 4.2	18 ± 6.7	–
Dabcyl-Trp-Arg-Arg-Arg-Arg-Lys(MTX)	–	–	36.9 ± 3	7.4 ± 2.2	–
Succinylated daunomycin [DauSuc]	–	–	24.5 ± 7.1	> 100	–
